Source: patent publication US10065963B2 (Incyte Corporation, priority 2015, dated 2018)
Structures can show the parent of a compound that is named as a salt.

How the values were obtained:
[1] = target: PI3Kγ (p110γ) Recombinant Human Protein (Homo sapiens (Human), UniProt P48736); assay: PI3K-γ scintillation proximity assay; type: biochemical; details: 2 μM ATP, 20 μM PIP2
[2] = test system: Phosphorylated Ribosomal Protein S6 (RPS6) in THP-1 cells; assay: THP-1 RPS6 ELISA assay; type: cell-based, human; details: Homo sapiens, THP-1, THP-1 cells, 10 nM MCP-1; read-out: PI3Kγ_THP1_RPS6_ELISA IC50
[3] = target: PI3Kδ (p110δ/p85α) Recombinant Human Protein (Homo sapiens (Human), UniProt O00329); assay: PI3Kδ scintillation proximity assay; type: biochemical; details: 2 μM ATP, 20 μM PIP2
Chain of PI3Kδ (p110δ/p85α) Recombinant Human Protein (O00329 whole entry): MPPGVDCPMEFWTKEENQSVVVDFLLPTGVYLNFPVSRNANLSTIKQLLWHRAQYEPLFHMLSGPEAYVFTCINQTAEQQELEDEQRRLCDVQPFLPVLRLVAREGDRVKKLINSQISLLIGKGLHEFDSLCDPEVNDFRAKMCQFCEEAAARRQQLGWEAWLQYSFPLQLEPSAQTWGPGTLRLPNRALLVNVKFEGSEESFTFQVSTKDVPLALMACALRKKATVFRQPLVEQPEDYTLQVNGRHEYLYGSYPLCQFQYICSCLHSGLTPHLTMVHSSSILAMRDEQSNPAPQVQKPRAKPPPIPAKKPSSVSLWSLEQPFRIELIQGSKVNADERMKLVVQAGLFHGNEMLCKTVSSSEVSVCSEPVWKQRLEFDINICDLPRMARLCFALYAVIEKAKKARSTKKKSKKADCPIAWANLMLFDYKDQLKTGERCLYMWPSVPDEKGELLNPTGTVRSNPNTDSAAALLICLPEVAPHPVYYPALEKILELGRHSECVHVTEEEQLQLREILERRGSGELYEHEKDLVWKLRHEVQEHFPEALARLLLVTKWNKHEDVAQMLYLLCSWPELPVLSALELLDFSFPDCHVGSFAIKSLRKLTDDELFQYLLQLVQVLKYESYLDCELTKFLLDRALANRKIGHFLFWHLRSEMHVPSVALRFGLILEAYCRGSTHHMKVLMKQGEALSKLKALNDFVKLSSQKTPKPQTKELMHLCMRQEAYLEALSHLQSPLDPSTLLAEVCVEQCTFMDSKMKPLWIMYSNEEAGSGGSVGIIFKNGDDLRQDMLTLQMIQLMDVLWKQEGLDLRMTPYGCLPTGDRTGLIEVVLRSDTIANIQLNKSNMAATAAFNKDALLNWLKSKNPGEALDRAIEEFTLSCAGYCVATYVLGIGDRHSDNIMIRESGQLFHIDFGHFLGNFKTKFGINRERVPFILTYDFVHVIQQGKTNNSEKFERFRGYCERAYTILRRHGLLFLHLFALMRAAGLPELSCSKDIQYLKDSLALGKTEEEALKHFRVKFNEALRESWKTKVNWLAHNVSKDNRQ
Chain of PI3Kδ (p110δ/p85α) Recombinant Human Protein (P27986 whole entry partner): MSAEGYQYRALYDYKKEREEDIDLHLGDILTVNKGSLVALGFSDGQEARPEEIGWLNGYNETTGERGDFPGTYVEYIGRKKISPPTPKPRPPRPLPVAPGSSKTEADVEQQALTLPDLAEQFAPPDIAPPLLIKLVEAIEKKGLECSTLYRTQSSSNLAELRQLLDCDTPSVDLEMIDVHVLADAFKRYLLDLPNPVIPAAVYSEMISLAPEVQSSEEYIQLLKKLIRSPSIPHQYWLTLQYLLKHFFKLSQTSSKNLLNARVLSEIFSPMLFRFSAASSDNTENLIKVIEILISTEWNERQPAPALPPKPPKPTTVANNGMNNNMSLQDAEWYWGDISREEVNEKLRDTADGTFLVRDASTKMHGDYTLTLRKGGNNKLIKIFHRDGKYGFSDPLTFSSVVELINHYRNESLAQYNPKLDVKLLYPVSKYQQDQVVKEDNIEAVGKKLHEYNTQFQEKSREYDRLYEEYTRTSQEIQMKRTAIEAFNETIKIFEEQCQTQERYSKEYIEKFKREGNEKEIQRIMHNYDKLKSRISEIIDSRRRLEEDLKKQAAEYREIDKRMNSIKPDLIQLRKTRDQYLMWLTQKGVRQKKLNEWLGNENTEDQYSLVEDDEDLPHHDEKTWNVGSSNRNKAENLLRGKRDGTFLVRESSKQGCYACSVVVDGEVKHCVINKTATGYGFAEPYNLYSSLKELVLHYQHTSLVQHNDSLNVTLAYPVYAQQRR

Chain of PI3Kγ (p110γ) Recombinant Human Protein (P48736 whole entry): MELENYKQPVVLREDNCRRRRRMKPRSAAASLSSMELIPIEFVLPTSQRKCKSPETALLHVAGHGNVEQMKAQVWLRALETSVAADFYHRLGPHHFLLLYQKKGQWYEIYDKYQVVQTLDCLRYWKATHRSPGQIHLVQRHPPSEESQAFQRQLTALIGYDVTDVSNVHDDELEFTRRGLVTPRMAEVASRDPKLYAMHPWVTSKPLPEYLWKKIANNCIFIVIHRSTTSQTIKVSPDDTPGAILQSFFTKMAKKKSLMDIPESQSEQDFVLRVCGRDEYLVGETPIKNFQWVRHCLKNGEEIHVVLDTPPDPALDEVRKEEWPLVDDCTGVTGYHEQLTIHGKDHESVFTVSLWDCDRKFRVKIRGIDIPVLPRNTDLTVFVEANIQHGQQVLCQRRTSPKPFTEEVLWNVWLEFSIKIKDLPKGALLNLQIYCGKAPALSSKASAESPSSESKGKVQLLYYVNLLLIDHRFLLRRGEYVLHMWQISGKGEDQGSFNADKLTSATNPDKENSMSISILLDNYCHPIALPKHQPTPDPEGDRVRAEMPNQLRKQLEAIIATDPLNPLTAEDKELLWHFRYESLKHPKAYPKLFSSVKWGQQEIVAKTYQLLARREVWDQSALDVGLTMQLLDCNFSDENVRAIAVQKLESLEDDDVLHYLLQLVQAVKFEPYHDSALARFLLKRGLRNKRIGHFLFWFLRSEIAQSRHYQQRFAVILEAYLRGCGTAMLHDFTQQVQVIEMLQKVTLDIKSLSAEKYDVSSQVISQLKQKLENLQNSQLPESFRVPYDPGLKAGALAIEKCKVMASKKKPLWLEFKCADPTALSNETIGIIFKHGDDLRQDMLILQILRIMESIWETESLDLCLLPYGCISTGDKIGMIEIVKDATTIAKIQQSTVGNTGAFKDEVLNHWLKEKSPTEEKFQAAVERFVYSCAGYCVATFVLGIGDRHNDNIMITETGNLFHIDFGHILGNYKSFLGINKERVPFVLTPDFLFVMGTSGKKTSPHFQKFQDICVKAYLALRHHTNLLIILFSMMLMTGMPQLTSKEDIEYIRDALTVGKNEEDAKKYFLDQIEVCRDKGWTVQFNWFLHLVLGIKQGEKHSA

Row | Compound | IC50 [1] [nM] | IC50 [2] [nM] | IC50 [3] [nM]
1 | CC(NC(=O)c1c(N)nn2cccnc12)c1cc(Cl)c2cn[nH]c2c1N1CC[C@H](NS(C)(=O)=O)C1 (stereo partly drawn) [Example 96A, 2-Amino-N-[1-(4-chloro-7-{(3S)-3-[(methylsulfonyl)amino]pyrrolidin-1-yl}-2H-indazol-6-yl)ethyl]pyrazolo[1,5-a]pyrimidine-3-carboxamide trifluoroacetate] | < 100 | < 1000 | < 100
2 | CC(NC(=O)c1c(N)nn2cccnc12)c1cc(Cl)c2cn[nH]c2c1N1CC[C@@H](NS(C)(=O)=O)C1 (stereo partly drawn) [Example 96B, 2-Amino-N-[1-(4-chloro-7-{(3R)-3-[(methylsulfonyl)amino]pyrrolidin-1-yl}-2H-indazol-6-yl)ethyl]pyrazolo[1,5-a]pyrimidine-3-carboxamide trifluoroacetate] | < 100 | > 1000 | < 100
3 | CCOC(=O)C1CC=C(c2c(C(C)NC(=O)c3c(N)nn4cccnc34)cc(Cl)c3cn[nH]c23)CC1 (stereo not drawn) [Example 97, Ethyl 4-[6-(1-{[(2-aminopyrazolo[1,5-a]pyrimidin-3-yl)carbonyl]amino}ethyl)-4-chloro-2H-indazol-7-yl]cyclohex-3-ene-1-carboxylate bistrifluoroacetate] | < 100 | < 1000 | < 500
4 | COC1CC=C(c2c(C(C)NC(=O)c3c(N)nn4cccnc34)cc(Cl)c3cn[nH]c23)CC1 (stereo not drawn) [Example 100, 2-Amino-N-{1-[4-chloro-7-(4-methoxycyclohex-1-en-1-yl)-2H-indazol-6-yl]ethyl}pyrazolo[1,5-a]pyrimidine-3-carboxamide trifluoroacetate] | < 100 | > 1000 | < 500
5 | CC(NC(=O)c1c(N)nn2cccnc12)c1cc(Cl)c2cn[nH]c2c1C1=CCC(C#N)CC1 (stereo not drawn) [Example 101, 2-Amino-N-{1-[4-chloro-7-(4-cyanocyclohex-1-en-1-yl)-2H-indazol-6-yl]ethyl}pyrazolo[1,5-a]pyrimidine-3-carboxamide trifluoroacetate] | < 100 | < 500 | < 500
6 | COC(=O)C1CCN(c2c(C(C)NC(=O)c3c(N)nn4cccnc34)cc(Cl)c3cn[nH]c23)C1 (stereo not drawn) [Example 102, Methyl 1-[6-(1-{[(2-aminopyrazolo[1,5-a]pyrimidin-3-yl)carbonyl]amino}ethyl)-4-chloro-2H-indazol-7-yl]pyrrolidine-3-carboxylate trifluoroacetate] | < 100 | > 1000 | < 500
7 | CC(=O)N[C@H]1CCCN(c2c(C(C)NC(=O)c3c(N)nn4cccnc34)cc(Cl)c3cn[nH]c23)C1 (stereo partly drawn) [Example 104, N-(1-(7-((S)-3-Acetamidopiperidin-1-yl)-4-chloro-1H-indazol-6-yl)ethyl)-2-aminopyrazolo[1,5-a]pyrimidine-3-carboxamide trifluoroacetate] | < 100 | < 500 | < 100
8 | CCOC(=O)C1CCN(c2c(C(C)NC(=O)c3c(N)nn4cccnc34)cc(Cl)c3cn[nH]c23)CC1 (stereo not drawn) [Example 106, Ethyl 1-[6-(1-{[(2-aminopyrazolo[1,5-a]pyrimidin-3-yl)carbonyl]amino}ethyl)-4-chloro-2H-indazol-7-yl]piperidine-4-carboxylate trifluoroacetate] | < 100 | > 1000 | < 500
9 | CNC(=O)C1CCN(c2c(C(C)NC(=O)c3c(N)nn4cccnc34)cc(Cl)c3cn[nH]c23)CC1 (stereo not drawn) [Example 107, 2-Amino-N-[1-(4-chloro-7-{4-[(methylamino)carbonyl]piperidin-1-yl}-2H-indazol-6-yl)ethyl]pyrazolo[1,5-a]pyrimidine-3-carboxamide trifluoroacetate] | < 100 | < 500 | < 500

The remaining lines, values ahead:

Row | IC50 [1] [nM] | IC50 [2] [nM] | IC50 [3] [nM] | Compound
10 | < 100 | < 500 | < 100 | CC(NC(=O)c1c(N)nn2cccnc12)c1cc(Cl)c2cn[nH]c2c1N1CCC[C@H](NS(C)(=O)=O)C1 (stereo partly drawn) [Example 105, 2-Amino-N-[1-(4-chloro-7-{(3S)-3-[(methylsulfonyl)amino]piperidin-1-yl}-2H-indazol-6-yl)ethyl]pyrazolo[1,5-a]pyrimidine-3-carboxamide trifluoroacetate]
11 | < 100 | < 500 | < 100 | CC(NC(=O)c1c(N)nn2cccnc12)c1cc(Cl)c2ccnn2c1N1CCCS(=O)(=O)CC1 (stereo not drawn) [Example 109, 2-Amino-N-{1-[4-chloro-7-(1,1-dioxido-1,4-thiazepan-4-yl)pyrazolo[1,5-a]pyridin-6-yl]ethyl}pyrazolo[1,5-a]pyrimidine-3-carboxamide trifluoroacetate]
12 | < 100 | < 500 | < 100 | CC(NC(=O)c1c(N)nn2cccnc12)c1cc(Cl)c2ccnn2c1N1CCNS(=O)(=O)CC1 (stereo not drawn) [Example 110, 2-Amino-N-{1-[4-chloro-7-(1,1-dioxido-1,2,5-thiadiazepan-5-yl)pyrazolo[1,5-a]pyridin-6-yl]ethyl}pyrazolo[1,5-a]pyrimidine-3-carboxamide trifluoroacetate]
13 | < 100 | < 500 | < 100 | CC(NC(=O)c1c(N)nn2cccnc12)c1cc(Cl)c2ccnn2c1N1CCS(=O)(=O)C(C)(C)C1 (stereo not drawn) [Example 111, 2-Amino-N-{1-[4-chloro-7-(2,2-dimethyl-1,1-dioxidothiomorpholin-4-yl)pyrazolo[1,5-a]pyridin-6-yl]ethyl}pyrazolo[1,5-a]pyrimidine-3-carboxamide trifluoroacetate]
14 | < 100 | < 500 | < 100 | CC(NC(=O)c1c(N)nn2cccnc12)c1cc(Cl)c2c(Cl)cnn2c1N1CCS(=O)(=O)C(C)C1 (stereo not drawn) [Example 112A, 2-Amino-N-{1-[3,4-dichloro-7-(2-methyl-1,1-dioxidothiomorpholin-4-yl)pyrazolo[1,5-a]pyridin-6-yl]ethyl}pyrazolo[1,5-a]pyrimidine-3-carboxamide trifluoroacetate]
15 | < 100 | < 500 | < 100 | CC(NC(=O)c1c(N)nn2cccnc12)c1cc(Cl)c2c(Cl)cnn2c1N1CCS(=O)(=O)CC1 (stereo not drawn) [Example 113, 2-Amino-N-{1-[3,4-dichloro-7-(1,1-dioxidothiomorpholin-4-yl)pyrazolo[1,5-a]pyridin-6-yl]ethyl}pyrazolo[1,5-a]pyrimidine-3-carboxamide trifluoroacetate]
16 | < 100 | < 500 | < 100 | CC(NC(=O)c1c(N)nn2cccnc12)c1cc(Cl)c2c(Cl)cnn2c1N1CCCS(=O)(=O)CC1 (stereo not drawn) [Example 114, 2-Amino-N-{1-[3,4-dichloro-7-(1,1-dioxido-1,4-thiazepan-4-yl)pyrazolo[1,5-a]pyridin-6-yl]ethyl}pyrazolo[1,5-a]pyrimidine-3-carboxamide trifluoroacetate]
17 | < 100 | < 500 | < 100 | CC(NC(=O)c1c(N)nn2cccnc12)c1cc(Cl)c2c(Cl)cnn2c1N1CCNS(=O)(=O)CC1 (stereo not drawn) [Example 115, 2-Amino-N-{1-[3,4-dichloro-7-(1,1-dioxido-1,2,5-thiadiazepan-5-yl)pyrazolo[1,5-a]pyridin-6-yl]ethyl}pyrazolo[1,5-a]pyrimidine-3-carboxamide trifluoroacetate]
